# Data reported in PMC4192545, “Suramin Inhibits Hsp104 ATPase and Disaggregase Activity” (PLoS ONE, 2014).
# Several values for one entry are separate records, joined by “and”; a condition that tells them apart may be missing. Equal values may be shown once.
# Experiments:
# Hsp104 = biological target: T1, Hsp104 (Saccharomyces cerevisiae, UniProt P31539); experiment: Luciferase disaggregation/reactivation assay, Hsp104 with ATP:ATPγS; assay type: biochemical, yeast
# T1 construct: made in house; host or cells: E. coli BL21-DE3 RIL
# T1 sequence (P31539 whole entry): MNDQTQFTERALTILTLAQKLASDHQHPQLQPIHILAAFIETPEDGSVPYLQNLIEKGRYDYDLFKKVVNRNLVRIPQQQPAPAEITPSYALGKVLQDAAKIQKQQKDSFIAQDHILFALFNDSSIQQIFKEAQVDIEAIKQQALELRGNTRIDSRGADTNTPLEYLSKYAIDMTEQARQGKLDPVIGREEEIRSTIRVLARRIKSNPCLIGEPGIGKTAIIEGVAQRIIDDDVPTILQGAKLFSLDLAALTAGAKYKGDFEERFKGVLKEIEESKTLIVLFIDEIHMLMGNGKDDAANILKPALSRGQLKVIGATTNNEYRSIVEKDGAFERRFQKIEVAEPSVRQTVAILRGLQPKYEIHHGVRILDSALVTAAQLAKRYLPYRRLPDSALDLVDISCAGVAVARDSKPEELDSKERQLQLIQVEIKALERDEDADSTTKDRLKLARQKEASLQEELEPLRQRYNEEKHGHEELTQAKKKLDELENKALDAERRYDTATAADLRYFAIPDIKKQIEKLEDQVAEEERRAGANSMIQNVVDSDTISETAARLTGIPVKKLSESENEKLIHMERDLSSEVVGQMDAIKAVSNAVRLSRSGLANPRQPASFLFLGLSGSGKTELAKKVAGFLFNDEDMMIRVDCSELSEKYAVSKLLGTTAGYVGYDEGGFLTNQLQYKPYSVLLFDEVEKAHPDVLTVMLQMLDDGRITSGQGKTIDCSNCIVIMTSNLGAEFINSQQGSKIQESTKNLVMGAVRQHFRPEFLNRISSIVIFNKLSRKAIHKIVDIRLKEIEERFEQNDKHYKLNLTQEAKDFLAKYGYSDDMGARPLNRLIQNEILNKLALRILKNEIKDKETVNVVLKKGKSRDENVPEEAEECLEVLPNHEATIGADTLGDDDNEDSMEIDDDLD
# Protocol: (§1) Luciferase reactivation was performed as described, [37]. To assemble aggregates, firefly luciferase (50 µM) in luciferase refolding buffer (LRB, 25 mM HEPES-KOH, 7.4, 150 mM KAOc, 10 mM MgAOc, 10 mM DTT) with 6 M urea was incubated at 30°C for 20 min. Luciferase was then rapidly diluted 100-fold into LRB, divided into 100 µL aliquots, snap frozen in liquid N2, and stored at −80°C. For reactivation assays, aggregated luciferase (50 nM) was incubated with Hsp104 (1 µM hexamer), plus 2.6 mM ATPγS, 2.6 mM ATP and an ATP regeneration system (1 mM creatine phosphate, 0.25 µM creatine kinase (Roche Applied Science)) for 90 minutes at 25°C. Luciferase assay system was purchased from Promega. Luciferase activity was assessed by luminescence measured on a Safire^2 microplate reader (Tecan, Männedorf, Switzerland). The half maximal inhibitory concentration (IC50) was calculating by fitting luciferase-refolding data at different Suramin concentrations with Prism (GraphPad Software, Inc., La Jolla, CA).
# [1] = biological target: T2, Hsp104 with Hsp70 and Hsp40 (Saccharomyces cerevisiae, UniProt P31539); experiment: Luciferase reactivation with Hsp70, Hsp40 and Hsp104 plus ATP; assay type: biochemical; settings: for Normalized Luciferase Refolding Activity: Figure 3D, 70/40/104 (Hsp70 1 µM, Hsp40 1 µM, ATP)
# T2 construct: host or cells: E. coli BL21-DE3 RIL (Hsp104)
# T2 sequence (P31539 whole entry): as above
# Protocol: as §1
# (A) Urea-denatured firefly luciferase aggregates were incubated for 90 min at 25°C with Hsp104 (1 µM hexamer) plus 1∶1 mixtures of ATP and ATPγS and varying concentrations of GdmCl. Luciferase reactivation was then determined and converted to % WT disaggregase activity in the presence of ATPγS: ATP. Values represent mean ±S.D. (n = 3–6). (B) Reactions were performed as in (A) except varying concentrations of Suramin were used. Values represent mean ±S.D. (n = 6–10). (C) Half maximal inhibitory concentration (IC50) for Suramin-mediated inhibition of Hsp104. IC50 was calculating by fitting luciferase-refolding data at different Suramin concentrations. (D) Reactions were performed as in (A) except that 1∶1 mixtures of ATP and ATPγS were replaced with Hsp70 (1 µM) and Hsp40 (1 µM) plus ATP. The Hsp104 alone condition (yellow bars) was carried out with 1∶1 mixtures of ATP and ATPγS as in (A). Each condition is normalized to the refolding activity in each corresponding condition in the absence of inhibitor.
# ClpB = biological target: T3, ClpB (Escherichia coli, UniProt P63284); experiment: ClpB ATPase assay; assay type: biochemical, E. coli; settings: for Normalized ATPase Activity: 10 min, ATP 1 mM, Figure 5A
# T3 construct: made in house
# T3 sequence (P63284 whole entry): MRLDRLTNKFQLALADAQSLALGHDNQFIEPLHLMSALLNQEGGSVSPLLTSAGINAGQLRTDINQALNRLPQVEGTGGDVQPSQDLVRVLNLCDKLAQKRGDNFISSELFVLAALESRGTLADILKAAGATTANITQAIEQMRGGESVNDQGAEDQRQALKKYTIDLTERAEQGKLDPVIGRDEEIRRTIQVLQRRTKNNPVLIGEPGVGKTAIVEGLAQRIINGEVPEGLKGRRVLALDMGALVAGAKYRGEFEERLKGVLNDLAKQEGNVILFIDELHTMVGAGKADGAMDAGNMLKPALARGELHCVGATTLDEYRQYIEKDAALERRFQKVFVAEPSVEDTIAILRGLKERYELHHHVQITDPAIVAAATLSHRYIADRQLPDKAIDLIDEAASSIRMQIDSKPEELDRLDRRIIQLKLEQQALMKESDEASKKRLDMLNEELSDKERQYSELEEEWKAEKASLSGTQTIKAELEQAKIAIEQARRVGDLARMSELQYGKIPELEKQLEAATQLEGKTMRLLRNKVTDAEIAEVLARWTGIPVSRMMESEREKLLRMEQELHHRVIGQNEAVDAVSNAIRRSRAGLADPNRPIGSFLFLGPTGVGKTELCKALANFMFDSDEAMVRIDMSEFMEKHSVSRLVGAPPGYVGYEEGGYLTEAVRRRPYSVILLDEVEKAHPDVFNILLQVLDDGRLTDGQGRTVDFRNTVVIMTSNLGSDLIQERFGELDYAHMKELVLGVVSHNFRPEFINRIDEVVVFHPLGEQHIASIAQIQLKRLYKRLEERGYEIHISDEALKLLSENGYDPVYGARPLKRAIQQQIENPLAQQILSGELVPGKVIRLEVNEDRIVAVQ
# Protocol: Wild-type or mutant Hsp104 (0.25 µM monomer) in ATPase buffer (20 mM HEPES-KOH pH 7.4, 20 mM NaCl and 10 mM MgCl2) was incubated for 60 or 10 min at 25°C in the presence of ATP (1 mM) as noted. ATPase activity was assessed by the release of inorganic phosphate determined by using a malachite green phosphate detection kit (Innova).
# (A) ClpB (0.25 µM monomer) was incubated for 10 min with ATP (1 mM) and varying concentrations of Suramin. The amount of Pi produced was measured by absorbance at 635 nm. Absorbance values were normalized to the absorbance produced by ClpB in the absence of inhibitor. Values represent mean ±S.D. (n = 6). (B) Urea-denatured firefly luciferase aggregates were incubated for 90 min at 25°C with ClpB (1 µM hexamer) in the presence of 1∶1 mixtures of ATP and ATPγS and varying concentrations of Suramin. Reactivation of luciferase was then determined by luminescence and converted to % WT ClpB activity (activity of 1 µM WT ClpB in the presence of ATP and ATPγS). Values represent mean ±S.D. (n = 6–12). TEXT PRINTED IN THE PICTURE: (A) Suramin: Normalized ATPase Activity: 1.03 ([Suramin] μM: 0); Normalized ATPase Activity: 0.76 ([Suramin] μM: 100); Normalized ATPase Activity: 0.78 ([Suramin] μM: 50); Normalized ATPase Activity: 0.60 ([Suramin] μM: 25); Normalized ATPase Activity: 0.59 ([Suramin] μM: 10); Normalized ATPase Activity: 0.65 ([Suramin] μM: 5); Normalized ATPase Activity: 1.01 ([Suramin] μM: 1) | (B) Suramin: Normalized Luciferase Refolding Activity: 1.00 ([Suramin] μM: 0); Normalized Luciferase Refolding Activity: 0.16 ([Suramin] μM: 100); Normalized Luciferase Refolding Activity: 1.03 ([Suramin] μM: 50); Normalized Luciferase Refolding Activity: 1.39 ([Suramin] μM: 25); Normalized Luciferase Refolding Activity: 2.23 ([Suramin] μM: 10); Normalized Luciferase Refolding Activity: 1.82 ([Suramin] μM: 5); Normalized Luciferase Refolding Activity: 1.02 ([Suramin] μM: 1)
# Hsp104^N728A = biological target: T4, Hsp104^N728A (Saccharomyces cerevisiae, UniProt P31539, N728A); experiment: biochemical; assay type: biochemical, yeast; settings: for Hsp104^N728A refolding activity: ATP alone
# T4 construct: made in house; host or cells: E. coli BL21-DE3 RIL
# T4 sequence (P31539 whole entry N728A): as the sequence (P31539 whole entry) above, with N728A counted along it
# Protocol: as §1
# (A) Hsp104 variants (0.25 µM monomer) were incubated for 10 min with ATP (1 mM) and varying concentrations of Suramin. The amount of Pi produced was measured by absorbance at 635 nm. Absorbance values were normalized to the absorbance produced by each Hsp104 variant in the absence of inhibitor. Values represent mean ±S.D. (n = 6). (B) Urea-denatured firefly luciferase aggregates were incubated for 90 min at 25°C with Hsp104 variants (1 µM hexamer) plus 1∶1 mixtures of ATP and ATPγS (or ATP alone) and varying concentrations of Suramin. Luciferase reactivation was then determined and normalized to untreated disaggregase activity for each variant in the presence of ATPγS: ATP (or ATP alone). 1∶1 mixtures of ATP and ATPγS were used for Hsp104^WT and Hsp104^T317A, while ATP alone was used for Hsp104^A503V and Hsp104^N728A. Values represent mean ±S.D. (n = 6–12).
compound,measurement,setting,value
Cc1ccc(C(=O)Nc2ccc(S(=O)(=O)O)c3cc(S(=O)(=O)O)cc(S(=O)(=O)O)c23)cc1NC(=O)c1cccc(NC(=O)Nc2cccc(C(=O)Nc3cc(C(=O)Nc4ccc(S(=O)(=O)O)c5cc(S(=O)(=O)O)cc(S(=O)(=O)O)c45)ccc3C)c2)c1 [Suramin],Normalized Luciferase Refolding Activity,"Hsp104; Figure 3D, Hsp104 alone (104), ATP:ATPγS 1:1, Suramin 25 µM",0.14
same,Normalized Luciferase Refolding Activity,"Hsp104; Figure 3D, Hsp104 alone (104), ATP:ATPγS 1:1, Suramin 100 µM",0.00
same,Hsp104^WT refolding activity,Hsp104; Suramin 1 µM,100%
same,Normalized Luciferase Refolding Activity,"Hsp104; Suramin 1 µM, 90 min 25°C, ATP:ATPγS 1:1, Figure 3B",0.99
same,Normalized Luciferase Refolding Activity,"Hsp104; Suramin 5 µM, 90 min 25°C, ATP:ATPγS 1:1, Figure 3B",0.63
same,Normalized Luciferase Refolding Activity,"Hsp104; Suramin 10 µM, 90 min 25°C, ATP:ATPγS 1:1, Figure 3B",0.50
same,Normalized Luciferase Refolding Activity,"Hsp104; Suramin 25 µM, 90 min 25°C, ATP:ATPγS 1:1, Figure 3B",0.14
same,Hsp104 refolding activity,Hsp104; Suramin 50 µM,practically inactive
same,Normalized Luciferase Refolding Activity,"Hsp104; Suramin 50 µM, 90 min 25°C, ATP:ATPγS 1:1, Figure 3B",0.03
same,Effect on Hsp104 refolding of denatured luciferase,Hsp104; Suramin 100 µM,completely ablated the ability of Hsp104 to refold denatured luciferase
same,Normalized Luciferase Refolding Activity,"Hsp104; Suramin 100 µM, 90 min 25°C, ATP:ATPγS 1:1, Figure 3B",0.00
same,IC50,"Hsp104; fit of luciferase-refolding data, ATP:ATPγS 1:1, read-out: IC50, Hsp104^WT luciferase refolding",~10.1 µM and 10.1 µM
same,Normalized Luciferase Refolding Activity,[1]; Suramin 25 µM,0.12
same,Normalized Luciferase Refolding Activity,[1]; Suramin 100 µM,0.03
same,Rescue of inhibition by Hsp70 and Hsp40,[1]; disaggregation reaction with Hsp70 and Hsp40,not rescued by inclusion of Hsp70 and Hsp40
same,Normalized ATPase Activity,"ClpB; ClpB 0.25 µM monomer, Suramin 100 µM",0.76
same,Normalized ATPase Activity,"ClpB; ClpB, Suramin 1 µM",1.01
same,Normalized ATPase Activity,"ClpB; ClpB, Suramin 5 µM",0.65
same,Normalized ATPase Activity,"ClpB; ClpB, Suramin 10 µM",0.59
same,Normalized ATPase Activity,"ClpB; ClpB, Suramin 25 µM",0.60
same,Normalized ATPase Activity,"ClpB; ClpB, Suramin 50 µM",0.78
same,inhibition at 100 µM,ClpB; Suramin 100 µM,24%
same,IC50,Hsp104^N728A,~92.4 µM
same,Hsp104^N728A refolding activity,Hsp104^N728A; Suramin 1 µM,~100%
same,Hsp104^N728A refolding activity,Hsp104^N728A; Suramin 50 µM,~36%
